Read-outs that look alike come from different tables or passages of the source.
How the values were obtained:
[1] = tested on: influenza A/H3N2 (A/HK/7/87) virus; experiment: Influenza virus CPE reduction assay in MDCK cells, A/H3N2; format: cell-based
[2] = tested on: influenza A/H1N1 (A/Virginia/ATCC3/2009) virus; experiment: Influenza virus CPE reduction assay in MDCK cells, A/H1N1; format: cell-based
[3] = tested on: influenza B virus (B/Ned/537/05); experiment: Influenza virus CPE reduction assay in MDCK cells, influenza B; format: cell-based; settings: read-out: Antiviral EC50 Influenza B Microscopy
in vitro = settings: dog
[4] = tested on: Madin-Darby canine kidney (MDCK) cells; settings: for cytotoxicity at the highest concentration tested: at 100 μM
[5] = Influenza A virus, H3N2, 96 h, CPE by microscopic scoring, 4 days at 35 °C, read-out: Antiviral EC50 Influenza A/H3N2 Microscopy
[6] = Influenza A virus, H3N2, 96 h, MTS cell viability assay, 4 days at 35 °C, read-out: Antiviral EC50 Influenza A/H3N2 MTS
[7] = Influenza A virus, 96 h, CPE by microscopic scoring, 4 days at 35 °C, read-out: Antiviral EC50 Influenza A/H1N1 Microscopy
[8] = Influenza A virus, 96 h, MTS cell viability assay, 4 days at 35 °C, read-out: Antiviral EC50 Influenza A/H1N1 MTS
[9] = Influenza B virus, 96 h, CPE by microscopic scoring, 4 days at 35 °C
[10] = Influenza A virus, read-out: EC50 against influenza A/H1N1 virus (range over microscopy and MTS)

| Compound | EC50 [1, 5] [nM] | EC50 [1, 6] [nM] | EC50 [2, 7] [nM] | EC50 [2, 8] [nM] | melting point [°C] | EC50 [3, 9] [nM] | CC50 (in vitro) [µM] | Cytotoxicity MCC (minimal cytotoxic concentration) ([4]; dog) [µM] | activity against influenza A/H1N1 virus (in words) [2] | EC50 [2, 10] [nM] | cytotoxicity at the highest concentration tested [4] | EC50 ([1]; MTS assay, BXA concentration unit nM, read-out: Antiviral EC50 Influenza A/H3N2 MTS) [nM] | EC50 ([1]; microscopic scoring, BXA concentration unit nM, read-out: Antiviral EC50 Influenza A/H3N2 Microscopy) [nM] | EC50 ([2]; MTS assay, BXA concentration unit nM, read-out: Antiviral EC50 Influenza A/H1N1 MTS) [nM] | EC50 ([2]; microscopic scoring, BXA concentration unit nM, read-out: Antiviral EC50 Influenza A/H1N1 Microscopy) [nM] | EC50 ([3]; microscopic scoring, BXA concentration unit nM) [nM] | CC50 [4] [µM] | Cytotoxicity MCC (minimal cytotoxic concentration) [4] [µM] |
| --- | --- | --- | --- | --- | --- | --- | --- | --- | --- | --- | --- | --- | --- | --- | --- | --- | --- | --- |
| COc1cc(S(N)(=O)=O)ccc1C(=O)NN1C(=O)C(C)SC12CCC(c1ccccc1)CC2 (stereo not drawn) [3 h, 2-Methoxy-N-(2-methyl-3-oxo-8-phenyl-1-thia-4-azaspiro[4.5]decan-4-yl)-4-sulfamoylbenzamide] | > 100000 | > 100000 | > 100000 | > 100000 | 290 to 292 | > 100000 | > 100 | 100 |  |  |  |  |  |  |  |  |  |  |
| COc1cc(S(N)(=O)=O)ccc1C(=O)NN1C(=O)C(C)SC12CCC(C)CC2 (stereo not drawn) [Compound 3b, 2-Methoxy-N-(2,8-dimethyl-3-oxo-1-thia-4-azaspiro[4.5]decan-4-yl)-4-sulfamoylbenzamide] | > 100000 | > 100000 | > 100000 | > 100000 | 258 to 261 | > 100000 | > 100 | > 100 |  |  |  |  |  |  |  |  |  |  |
| CCCC1CCC2(CC1)SC(C)C(=O)N2NC(=O)c1ccc(S(N)(=O)=O)cc1OC (stereo not drawn) [Compound 3d, 2-Methoxy-N-(2-methyl-3-oxo-8-propyl-1-thia-4-azaspiro[4.5]decan-4-yl)-4-sulfamoylbenzamide] | > 100000 | > 100000 | 45000 | 39000 | 274 to 276 | > 100000 | > 100 | 100 | weak activity | 35000 to 45000 | no cytotoxicity |  |  |  |  |  |  |  |
| CC(=O)N[C@H]1[C@H]([C@H](O)[C@H](O)CO)OC(C(=O)O)=C[C@@H]1N=C(N)N [Zanamivir, reference compound] | < 800 | < 800 | > 100000 | > 100000 |  | < 800 | > 100 | > 100 |  |  |  |  |  |  |  |  |  |  |
| CCC1CCC2(CC1)SC(C)C(=O)N2NC(=O)c1ccc(S(N)(=O)=O)cc1OC (stereo not drawn) [Compound 3c, 2-Methoxy-N-(8-ethyl-2-methyl-3-oxo-1-thia-4-azaspiro[4.5]decan-4-yl)-4-sulfamoylbenzamide] | > 100000 | > 100000 | > 100000 | 80000 | 270 to 272 | > 100000 | > 100 | 100 |  |  |  |  |  |  |  |  |  |  |
| COc1cc(S(N)(=O)=O)ccc1C(=O)NN1C(=O)C(C)SC12CCC(NC(C)=O)CC2 (stereo not drawn) [Compound 3j, 2-Methoxy-N-(8-acetamido-2-methyl-3-oxo-1-thia-4-azaspiro[4.5]decan-4-yl)-4-sulfamoylbenzamide] | > 100000 | > 100000 | > 100000 | > 100000 |  | > 100000 | > 100 | > 100 |  |  |  |  |  |  |  |  |  |  |
| COc1cc(S(N)(=O)=O)ccc1C(=O)NN1C(=O)C(C)SC12CCCC(C)C2 (stereo not drawn) [Compound 3a, 2-Methoxy-N-(2,7-dimethyl-3-oxo-1-thia-4-azaspiro[4.5]decan-4-yl)-4-sulfamoylbenzamide] | > 100000 | 64000 | > 100000 | 76000 | 261 to 264 | > 100000 | > 100 | > 100 |  |  |  |  |  |  |  |  |  |  |
| COc1cc(S(N)(=O)=O)ccc1C(=O)NN1C(=O)C(C)SC12CCC(C#N)(c1ccccc1)CC2 (stereo not drawn) [Compound 3i, 2-Methoxy-N-(8-cyano-2-methyl-3-oxo-8-phenyl-1-thia-4-azaspiro[4.5]decan-4-yl)-4-sulfamoylbenzamide] | > 100000 | > 100000 | > 100000 | 74000 | 265 to 270 | > 100000 | > 100 | > 100 |  |  |  |  |  |  |  |  |  |  |
| NC(=O)c1ncn([C@@H]2O[C@H](CO)[C@@H](O)[C@H]2O)n1 [Ribavirin, reference compound] | 40000 | 26000 | 45000 | 25000 |  | 10000 | > 100 |  |  |  |  |  |  |  |  |  |  |  |
| COc1cc(S(N)(=O)=O)ccc1C(=O)NN1C(=O)C(C)SC12CCC(C(C)(C)C)CC2 (stereo not drawn) [Compound 3e, 2-Methoxy-N-(2-methyl-3-oxo-8-tert-butyl-1-thia-4-azaspiro[4.5]decan-4-yl)-4-sulfamoylbenzamide] | > 100000 | 68000 | 45000 | 35000 | 301 to 304 | > 100000 | > 100 | > 100 | weak activity | 35000 to 45000 | no cytotoxicity |  |  |  |  |  |  |  |
| CCC(C)(C)C1CCC2(CC1)SC(C)C(=O)N2NC(=O)c1ccc(S(N)(=O)=O)cc1OC (stereo not drawn) [Compound 3f, 2-Methoxy-N-(2-methyl-3-oxo-8-tert-pentyl-1-thia-4-azaspiro[4.5]decan-4-yl)-4-sulfamoylbenzamide] | > 100000 | > 100000 | > 100000 | > 100000 | 290 to 295 | > 100000 | > 100 | > 100 |  |  |  |  |  |  |  |  |  |  |
| O=C1c2c(O)c(=O)ccn2N([C@@H]2c3ccccc3SCc3c2ccc(F)c3F)[C@@H]2COCCN12 [BXA, baloxavir acid, reference compound] |  |  |  |  |  |  |  |  |  |  |  | 1.7 | 2 | 1.5 | 1.8 | 8.3 | > 0.02 | > 0.02 |
| COc1cc(S(N)(=O)=O)ccc1C(=O)NN1C(=O)C(C)SC12CCC(C(F)(F)F)CC2 (stereo not drawn) [3 g, 2-Methoxy-N-(2-methyl-3-oxo-1-thia-8-trifluoromethyl-4-azaspiro[4.5]decan-4-yl)-4-sulfamoylbenzamide] | > 100000 | > 100000 | > 100000 | > 100000 | 210 to 214 | > 100000 | > 100 | 100 |  |  |  |  |  |  |  |  |  |  |
